Data published in patent US11396531B2, “Antimicrobial peptides comprising epsilon lysine residues” (priority 2016, dated 2022).
≈ marks a conversion by molar mass, not a printed value. No end group written: not given here.

What was measured:
P. aeruginosa ATCC 9027 = assay: Antimicrobial activity of the peptides in trypsin; format: cell-based, Pseudomonas aeruginosa; conditions: trypsin:peptide 1:100, 37° C.
Procedure: To determine the antimicrobial activity of the peptides in the presence of proteases, 1 mg/ml of HC1 and HC2 were incubated with trypsin enzyme:peptide weight ratio 1:100) for 1 h at 37° C. After this, a 20 μl aliquot of this solution was mixed 180 μl of bacterial inoculum (P. aeruginosa ATCC 9027, 10^5 CFU/ml in MHB) and incubated at room temperature for 6 h. 100 μL aliquots of the suspension was diluted serially (10-fold) in 10 mM PBS solution and pour plated on MH agar plates and incubated at 37° C. for 48 h and colony forming units per ml (CFU/ml) are enumerated.

[1] = tested on: Vancomycin-resistant Enterococcus (VRE); conditions: VRE (n = 3)
Procedure: (§1) MIC of cationic polymers and polypeptide were tested in accordance with the Clinical and Laboratory Standards Institute (CLSI) guidelines against a panel of antibiotic-susceptible/-resistant bacteria, yeasts and fungal strains. Bacterial and yeast strains were cultured on tryptic soy agar (TSA) and Sabaroud dextrose agar (SDA) plates (Neogen Corporation, MI, USA) overnight respectively. Inocula in Mueller-Hinton broth (MHB) for bacteria and SD broth for C. albicans (Beckton Dickinson, MD, USA) were prepared at 0.5 McFarland. The suspensions were then diluted to a final concentration of 10^5 CFU/ml in a 96-well microtitre plate (SPL Life Sciences Co., Ltd, Korea). […] The antimicrobial activities were compared with topical antiseptic agents, BAK and CHX. A similar protocol was used to determine the MIC of εPL against antibiotic-resistant pathogens. MIC of the polymers and polypeptides against Fusarium strains was determined in full strength RPMI-1640 buffer. Fungal spores were recovered from a 5-day old culture on a potato dextrose agar and diluted to a concentration of 10^5 spores/ml in 0.9% saline solution. A further 50-fold dilution was done in RPMI-1640 buffer and 100 μl of the inoculum was added to 96 well plates containing an equal volume of test peptides at 2-fold serial dilutions. 200 μl of inoculum without any additives and buffer alone served as positive and negative controls, respectively. The plate was then incubated at 30° C. for 48 h. The absorbance value was measured at 600 nm as before and the lowest concentration of the peptide which inhibited 90% growth was reported. All MIC determinations were performed in duplicates.
(§2) MICs of polymers/antibiotics were determined using the microdilution method in 96 well microtitre plates (SPL Life Sciences Co., Ltd, Korea), following the guidelines of Clinical and Laboratory Standards Institute (CLSI) document M100-S18. Briefly, polymers (1-512 μg/ml) or antibiotics were dissolved in appropriate media (Mueller Hinton broth, MHB for bacteria; Sabaroud's Dextrose (SD) broth for yeasts and RPMI buffer for Fusarium strains) and 100 μl of this was then mixed with an equal volume of microbial inoculum (OD600=˜0.08) in the same media and shaken in a closed incubator.

C. albicans = C. albicans (n = 5)
Procedure: as §1, §2

S. aureus = assay: microbe, parasite or virus in culture; format: cell-based, Staphylococcus aureus; conditions: S. aureus (n = 6)
Procedure: as §1, with “Korea). Polymers and polypeptides were added to the inoculum in 2-fold serial dilutions to give a range of concentrations from 2-1024 μg/ml.” for “Korea).”
as §2

K. pneumoniae = assay: microbe, parasite or virus in culture; format: cell-based, Klebsiella pneumoniae; conditions: K. pneumonia (n = 4)
Procedure: as §1, with “Korea). Polymers and polypeptides were added to the inoculum in 2-fold serial dilutions to give a range of concentrations from 2-1024 μg/ml.” for “Korea).”
as §2

MRSA = format: cell-based, Staphylococcus aureus; conditions: MRSA (n = 9)
Procedure: as §1, with “Korea). Polymers and polypeptides were added to the inoculum in 2-fold serial dilutions to give a range of concentrations from 2-1024 μg/ml.” for “Korea).”
as §2

E. coli = assay: microbe, parasite or virus in culture; format: cell-based, Escherichia coli; conditions: E. coli (n = 3)
Procedure: as §1, with “Korea). Polymers and polypeptides were added to the inoculum in 2-fold serial dilutions to give a range of concentrations from 2-1024 μg/ml.” for “Korea).”
as §2

P. aeruginosa = format: cell-based, Pseudomonas aeruginosa; conditions: P. aeruginosa (n = 22)
Procedure: as §1, with “Korea). Polymers and polypeptides were added to the inoculum in 2-fold serial dilutions to give a range of concentrations from 2-1024 μg/ml.” for “Korea).”
(§3) MICs of polymers/antibiotics were determined using the microdilution method in 96 well microtitre plates (SPL Life Sciences Co., Ltd, Korea), following the guidelines of Clinical and Laboratory Standards Institute (CLSI) document M100-S18. […]

E. cloacae complex = assay: microbe, parasite or virus in culture; conditions: E. clocae complex (n = 4)
Procedure: as §1, §2

A. baumannii = assay: microbe, parasite or virus in culture; conditions: A. baumanii (n = 3)
Procedure: as §1, §2

[2] = tested on: Carbapenam-resistant Enterobacter strains (CRE); assay: microbe, parasite or virus in culture; conditions: CRE strains (n = 4)
Procedure: as §1, §2

[3] = tested on: T-cell lymphomas (HuT78, MJ, HH) and B-cell lymphomas (Ly-4 and Ly-18); assay: Anticancer properties of hypercharged peptides (MTS); format: cell-based, human; conditions: 62.5-500 μg/ml
Procedure: The hyper-charged peptides were screened for their anticancer properties using cell lines derived from patients with various forms of cutaneous lymphomas, including T-cell lymphomas (HuT78, MJ, HH) and B-cell lymphomas (Ly-4 and Ly-18). The relative cytotoxicity of these peptides was also assessed in healthy primary peripheral blood lymphocyte (PBL) T-cells. Cytotoxicity was measured as the mitochondrial function by metabolic reduction of MTS.

[4] = tested on: F. solani and F. oxysporum; assay: Minimum inhibitory concentration (MIC) determination, Fusarium strains; format: cell-based; conditions: F. solani and F. oxysporum (n = 6)
Procedure: MIC of cationic polymers and polypeptide were tested in accordance with the Clinical and Laboratory Standards Institute (CLSI) guidelines against a panel of antibiotic-susceptible/-resistant bacteria, yeasts and fungal strains. Bacterial and yeast strains were cultured on tryptic soy agar (TSA) and Sabaroud dextrose agar (SDA) plates (Neogen Corporation, MI, USA) overnight respectively. Inocula in Mueller-Hinton broth (MHB) for bacteria and SD broth for C. albicans (Beckton Dickinson, MD, USA) were prepared at 0.5 McFarland. The suspensions were then diluted to a final concentration of 10^5 CFU/ml in a 96-well microtitre plate (SPL Life Sciences Co., Ltd, Korea). Polymers and polypeptides were added to the inoculum in 2-fold serial dilutions to give a range of concentrations from 2-1024 μg/ml. […] The antimicrobial activities were compared with topical antiseptic agents, BAK and CHX. […] MIC of the polymers and polypeptides against Fusarium strains was determined in full strength RPMI-1640 buffer. […] The absorbance value was measured at 600 nm as before and the lowest concentration of the peptide which inhibited 90% growth was reported. […]
as §3

| Molecule | decrease in the bacterial viability after incubation with trypsin for 1 hour (P. aeruginosa ATCC 9027) | MIC [1] | MIC (C. albicans) | MIC (S. aureus) | MIC (K. pneumoniae) | MIC (MRSA) | MIC (E. coli) | MIC (P. aeruginosa) | MIC (E. cloacae complex) | MIC (A. baumannii) | MIC [2] | cell killing in lymphoma cell lines [3] | MIC [4] |
| --- | --- | --- | --- | --- | --- | --- | --- | --- | --- | --- | --- | --- | --- |
| KRKRKRKRKRKR [HC1, KRKRKRKRKRKR] | complete loss of activity | 16 to 32 µg/mL | 64 to 128 µg/mL | 32 to 64 µg/mL | 64 µg/mL | 16 to 64 µg/mL | 16 µg/mL | 32 to 128 µg/mL | 64 to 128 µg/mL | 64 to 128 µg/mL | 64 to 128 µg/mL | varying degrees of cell killing |  |
| C[C@@H]1C/C=C/C=C/C=C/C=C/[C@H](O[C@@H]2O[C@H](C)[C@@H](O)[C@H](N)[C@@H]2O)C[C@@H]2O[C@](O)(C[C@@H](O)C[C@H]3O[C@@H]3/C=C/C(=O)O1)C[C@H](O)[C@H]2C(=O)O [Natamycin] |  |  |  |  |  |  |  |  |  |  |  |  | 8000 to 16000 µg/mL (≈ 12000 to 24000 µM) |
| N=C(N)NCCC[C@H](NC(=O)[C@H](N)CCCCNC(=O)[C@H](CCCNC(=N)N)NC(=O)[C@H](N)CCCCNC(=O)[C@H](CCCNC(=N)N)NC(=O)[C@H](N)CCCCNC(=O)[C@H](CCCNC(=N)N)NC(=O)[C@H](N)CCCCNC(=O)[C@H](CCCNC(=N)N)NC(=O)[C@H](N)CCCCNC(=O)[C@H](CCCNC(=N)N)NC(=O)[C@H](N)CCCCN)C(=O)O [HC6, kRkRkRkRkRkR] |  | 16 µg/mL (≈ 9.28 µM) | 16 to 32 µg/mL | 32 to 64 µg/mL | 32 to 128 µg/mL | 16 to 32 µg/mL | 16 µg/mL (≈ 9.28 µM) | 32 to 64 µg/mL | 64 to 128 µg/mL | 16 to 64 µg/mL | 64 to 128 µg/mL | varying degrees of cell killing |  |
